Where “and” joins values, the source holds several entries; their conditions need not be identical. Identical values can stand only once. Inconclusive results and toxic doses are left out.
System: B6C3F1 mice, intracerebral ependymoblastoma, median survival T/C
Experiment: NCI In Vivo Anticancer Drug Screen. Data for tumor model Ependymoblastoma (intracerebral) in B6C3F1 mice
Conditions: endpoint: median survival time, higher = longer survival
Description: The antitumor activity of compounds was measured in mice bearing transplantable tumors. Survival or tumor size were measured and the results are expressed as the measurement made in the treated group (T) divided by the measurement made in the vehicle treated control group (C). The tumor model used in this assay is Ependymoblastoma (intracerebral) in B6C3F1 mice

[1] = dose: 16.0 mg/kg/injection, schedule: Q01DX005 (ip), vehicle: saline with Tween-80

For `O=NN(CCCl)C(=O)NCCCl`, the T/C (dose: 0.5 mg/kg/injection, schedule: Q01DX009 (ip), vehicle: saline with Tween-80) was 114 % of control, the T/C (dose: 1.0 mg/kg/injection, schedule: Q01DX001 (ip), vehicle: saline) was 96 % of control and 105 % of control and the T/C (dose: 1.0 mg/kg/injection, schedule: Q01DX005 (ip), vehicle: saline + alcohol) was 100 % of control and 115 % of control. For the same compound, the T/C (dose: 1.0 mg/kg/injection, schedule: Q01DX005 (ip), vehicle: saline with Tween-80) was 99 % of control and 103 % of control, the T/C (dose: 1.0 mg/kg/injection, schedule: Q01DX009 (ip), vehicle: saline with Tween-80) was 118 % of control and the T/C (dose: 2.0 mg/kg/injection, schedule: Q01DX001 (ip), vehicle: saline) was 96 % of control and 105 % of control. The T/C (dose: 2.0 mg/kg/injection, schedule: Q01DX005 (ip), vehicle: saline + alcohol) was 103 % of control and 107 % of control and 119 % of control, the T/C (dose: 2.0 mg/kg/injection, schedule: Q01DX005 (ip), vehicle: saline with Tween-80) was 93 % of control and 116 % of control and the T/C (dose: 2.0 mg/kg/injection, schedule: Q01DX009 (ip), vehicle: saline with Tween-80) was 153 % of control. The T/C (dose: 2.5 mg/kg/injection, schedule: Q01DX001 (ip), vehicle: saline with Tween-80) was 109 % of control, the T/C (dose: 4.0 mg/kg/injection, schedule: Q01DX001 (ip), vehicle: saline) was 106 % of control and 111 % of control and the T/C (dose: 4.0 mg/kg/injection, schedule: Q01DX005 (ip), vehicle: saline + alcohol) was 170 % of control. For the same compound, the T/C (dose: 4.0 mg/kg/injection, schedule: Q01DX009 (ip), vehicle: saline with Tween-80) was 241 % of control, the T/C (dose: 5.0 mg/kg/injection, schedule: Q01DX001 (ip), vehicle: alcohol) was 113 % of control and the T/C (dose: 5.0 mg/kg/injection, schedule: Q01DX001 (ip), vehicle: saline with Tween-80) was 113 % of control. For the same compound, the T/C (dose: 7.5 mg/kg/injection, schedule: Q01DX001 (ip), vehicle: saline + alcohol) was 107 % of control, the T/C (dose: 8.0 mg/kg/injection, schedule: Q01DX001 (ip), vehicle: saline) was 108 % of control and 110 % of control and the T/C (dose: 8.0 mg/kg/injection, schedule: Q01DX005 (ip), vehicle: saline + alcohol) was 204 % of control and 218 % of control. For the same compound, the T/C (dose: 8.0 mg/kg/injection, schedule: Q01DX005 (ip), vehicle: saline with Tween-80) was 171 % of control and 240 % of control, the T/C (dose: 8.0 mg/kg/injection, schedule: Q01DX009 (ip), vehicle: saline with Tween-80) was 106 % of control and the T/C (dose: 10.0 mg/kg/injection, schedule: Q01DX001 (ip), vehicle: saline with Tween-80) was 99 % of control. The T/C (dose: 10.0 mg/kg/injection, schedule: Q01DX005 (ip), vehicle: saline with Tween-80) was 214 % of control, the T/C (dose: 16.0 mg/kg/injection, schedule: Q01DX001 (ip), vehicle: saline) was 150 % of control and 163 % of control and the T/C (dose: 16.0 mg/kg/injection, schedule: Q01DX005 (ip), vehicle: saline + alcohol) was 376 % of control. The T/C [1] was 105 % of control, the T/C (dose: 20.0 mg/kg/injection, schedule: Q01DX001 (ip), vehicle: alcohol) was 167 % of control and the T/C (dose: 20.0 mg/kg/injection, schedule: Q01DX001 (ip), vehicle: saline with Tween-80) was 117 % of control. The T/C (dose: 24.0 mg/kg/injection, schedule: Q01DX001 (ip), vehicle: saline) was 300 % of control, the T/C (dose: 30.0 mg/kg/injection, schedule: Q01DX001 (ip), vehicle: saline + alcohol) was 177 % of control and the T/C (dose: 32.0 mg/kg/injection, schedule: Q01DX001 (ip), vehicle: saline) was 196 % of control and 226 % of control. For the same compound, the T/C (dose: 40.0 mg/kg/injection, schedule: Q01DX001 (ip), vehicle: alcohol) was 215 % of control, the T/C (dose: 40.0 mg/kg/injection, schedule: Q01DX001 (ip), vehicle: saline with Tween-80) was 112 % of control and the T/C (dose: 60.0 mg/kg/injection, schedule: Q01DX001 (ip), vehicle: saline + alcohol) was 359 % of control. For the same compound, the T/C (dose: 64.0 mg/kg/injection, schedule: Q01DX001 (ip), vehicle: saline) was 95 % of control.

With `O=NN(CCF)C(=O)NC1C(O)CCCC1O` (stereo unspecified) the T/C (dose: 5.18 mg/kg/injection, schedule: Q01DX005 (ip), vehicle: Klucel (hydroxypropylcellulose) (HPC)) was 189 % of control, the T/C (dose: 8.64 mg/kg/injection, schedule: Q01DX005 (ip), vehicle: Klucel (hydroxypropylcellulose) (HPC)) was 230 % of control and the T/C (dose: 13.0 mg/kg/injection, schedule: Q01DX001 (ip), vehicle: saline) was 115 % of control. The T/C (dose: 14.4 mg/kg/injection, schedule: Q01DX005 (ip), vehicle: Klucel (hydroxypropylcellulose) (HPC)) was 357 % of control, the T/C (dose: 24.0 mg/kg/injection, schedule: Q01DX005 (ip), vehicle: Klucel (hydroxypropylcellulose) (HPC)) was 111 % of control and the T/C (dose: 36.0 mg/kg/injection, schedule: Q01DX001 (ip), vehicle: saline) was 159 % of control. For the same compound, the T/C (dose: 60.0 mg/kg/injection, schedule: Q01DX001 (ip), vehicle: saline) was 247 % of control and the T/C (dose: 100.0 mg/kg/injection, schedule: Q01DX001 (ip), vehicle: saline) was 157 % of control.

For `CN(N=O)C(=O)Nc1c[nH]c(=O)[nH]c1=O`, the T/C [1] was 114 % of control.

For `CCC(=O)O[C@H]1CC[C@H]2[C@@H]3[C@@H](C)CC4=CC(=O)CC[C@]4(C)[C@H]3CC[C@]12C`, the T/C (dose: 32.0 mg/kg/injection, schedule: Q01DX005 (ip), vehicle: saline with Tween-80) was 99 % of control and 106 % of control, the T/C (dose: 64.0 mg/kg/injection, schedule: Q01DX005 (ip), vehicle: saline with Tween-80) was 97 % of control and 106 % of control and the T/C (dose: 128.0 mg/kg/injection, schedule: Q01DX005 (ip), vehicle: saline with Tween-80) was 97 % of control and 101 % of control. The T/C (dose: 256.0 mg/kg/injection, schedule: Q01DX005 (ip), vehicle: saline with Tween-80) was 101 % of control and 89 % of control, the T/C (dose: 512.0 mg/kg/injection, schedule: Q01DX005 (ip), vehicle: saline with Tween-80) was 93 % of control and 100 % of control and the T/C (dose: 768.0 mg/kg/injection, schedule: Q01DX005 (ip), vehicle: saline with Tween-80) was 94 % of control.

In the case of `CS(C)=O`, the T/C (dose: 500.0 mg/kg/injection, schedule: Q01DX005 (ip), vehicle: water) is reported as 103 % of control, the T/C (dose: 1000.0 mg/kg/injection, schedule: Q01DX005 (ip), vehicle: saline) is reported as 98 % of control and the T/C (dose: 1000.0 mg/kg/injection, schedule: Q01DX005 (ip), vehicle: water) is reported as 97 % of control. The T/C (dose: 2000.0 mg/kg/injection, schedule: Q01DX001 (ip), vehicle: saline) was 96 % of control and 98 % of control and 100 % of control, the T/C (dose: 2000.0 mg/kg/injection, schedule: Q01DX005 (ip), vehicle: saline) was 109 % of control and the T/C (dose: 2000.0 mg/kg/injection, schedule: Q01DX005 (ip), vehicle: water) was 103 % of control. The T/C (dose: 2.0 grams/kg/injection, schedule: Q01DX001 (ip), vehicle: saline) was 102 % of control, the T/C (dose: 4000.0 mg/kg/injection, schedule: Q01DX001 (ip), vehicle: saline) was 91 % of control and 95 % of control and 103 % of control and the T/C (dose: 4000.0 mg/kg/injection, schedule: Q01DX005 (ip), vehicle: saline) was 103 % of control. The T/C (dose: 4000.0 mg/kg/injection, schedule: Q01DX005 (ip), vehicle: water) was 105 % of control, the T/C (dose: 4.0 grams/kg/injection, schedule: Q01DX001 (ip), vehicle: saline) was 95 % of control and the T/C (dose: 8000.0 mg/kg/injection, schedule: Q01DX001 (ip), vehicle: saline) was 101 % of control (2×) and 107 % of control. For the same compound, the T/C (dose: 8000.0 mg/kg/injection, schedule: Q01DX005 (ip), vehicle: saline) was 103 % of control, the T/C (dose: 8000.0 mg/kg/injection, schedule: Q01DX005 (ip), vehicle: water) was 98 % of control and the T/C (dose: 8.0 grams/kg/injection, schedule: Q01DX001 (ip), vehicle: saline) was 99 % of control. The T/C (dose: 16000.0 mg/kg/injection, schedule: Q01DX001 (ip), vehicle: saline) was 93 % of control.

With `C/C(=C\c1ccccc1)[N+](=O)[O-]` the T/C (dose: 3.12 mg/kg/injection, schedule: Q01DX005 (ip), vehicle: Klucel (hydroxypropylcellulose) (HPC)) was 96 % of control, the T/C (dose: 6.25 mg/kg/injection, schedule: Q01DX005 (ip), vehicle: Klucel (hydroxypropylcellulose) (HPC)) was 100 % of control and the T/C (dose: 12.5 mg/kg/injection, schedule: Q01DX005 (ip), vehicle: Klucel (hydroxypropylcellulose) (HPC)) was 92 % of control. For the same compound, the T/C (dose: 25.0 mg/kg/injection, schedule: Q01DX005 (ip), vehicle: Klucel (hydroxypropylcellulose) (HPC)) was 92 % of control, the T/C (dose: 50.0 mg/kg/injection, schedule: Q01DX005 (ip), vehicle: Klucel (hydroxypropylcellulose) (HPC)) was 91 % of control and the T/C (dose: 100.0 mg/kg/injection, schedule: Q01DX005 (ip), vehicle: Klucel (hydroxypropylcellulose) (HPC)) was 91 % of control.
